Assay results reported in patent US20240391870A1 (Arcturus Therapeutics, Inc., priority 2023, published 2024).

Key:
[1] = In vivo biodegradability assay (lipid in liver); conditions: mouse liver, 48 h
Procedure: In vivo biodegradability assay was performed to assess the biodegradability of lipids in the LNP. Briefly, mice were injected with either 0.1 or 0.03 mg/Kg dose and after 24 or 48 hours mice livers were collected. To measure the concentration of lipids in the mouse liver, liver samples were homogenized in appropriate buffer in 1-10 dilution and mixed with the same amount of stabilized plasma. The samples were then mixed with organic solvents spiked with internal standard to precipitate proteins. After centrifugation, supernatant was diluted further with organic solvent before sample analysis by LC-MS. In LC-MS analysis, positive electrospray ionization was used, and multiple reaction monitoring (MRM) parameters were set up to specifically target the lipid analyte and internal standard. Calibration standards were prepared in stabilized plasma and mixed with same amount of homogenization buffer before protein precipitation. Quality control samples with known amounts of lipid was prepared in blank liver homogenate to monitor the precision and accuracy of the assay.

[2] = Measured pKa in the indicated formulation; conditions: for pKa: EPO: measured in EPO formulation; for pKa: FVII: measured in FVII formulation
Procedure: Measured pKa values were determined based on the pH measured in the indicated formulation (i.e., EPO or FVII formulation).

hEPO = hEPO mRNA expression evaluation (hEPO-LNPs); format: in vivo, Balb/c mice; conditions: serum hEPO after 6 hr; for EPO exprssn (ng/mL) 0.03 mpk: 0.03 mpk i.v.; for EPO exprssn (ng/mL) 0.1 mpk: 0.1 mpk i.v.
Procedure: Protocol for hEPO mRNA Expression Evaluation
Lipid formulations comprising a hEPO mRNA below were evaluated for their ability to express hEPO in vivo according to the protocol of this example. All animal experiments were conducted using institutionally-approved protocols (IACUC). In this protocol, female Balb/c mice at least 6-8 weeks of age were purchased from Charles River Laboratory. […] After 6 hr, blood was collected with serum separation tubes, and the serum was isolated by centrifugation. Serum hEPO levels were then measured using an ELISA assay (Human Erythropoietin Quantikine IVD ELISA Kit, R&D Systems, Minneapolis, MD).

factor VII = experiment: Factor VII knock down evaluation (LNP with FVII siRNA); format: in vivo, Balb/C mice; conditions: plasma FVII after 48 h vs saline control; for FVII KD % 0.01 mpk: 0.01 mpk i.v.; for FVII KD % 0.03 mpk: 0.03 mpk i.v.
Procedure: Lipid formulations comprising a FVII siRNA further described below were evaluated for their knockdown activity using the protocol of this example. In the FVII evaluation, seven to eight week-old, female Balb/C mice were purchased from Charles River Laboratories (Hollister, CA). The mice were held in a pathogen-free environment and all procedures involving the mice were performed in accordance with guidelines established by the Institutional Animal Care and Use Committee (IACUC). Lipid nanoparticles containing factor VII siRNA were administered intravenously at a dosing volume of 10 mL/kg and two dose levels (0.03 and 0.01 mg/kg). After 48 h, the mice were anesthetized with isoflurane and blood was collected retro-orbitally into Microtainer® tubes coated with 0.109 M sodium citrate buffer (BD Biosciences, San Diego, CA) and processed to plasma. Plasma specimens were tested for factor VII levels immediately or stored at −80° C. for later analysis. Measurement of FVII protein in plasma was determined using the colorimetric Biophen VII assay kit (Aniara Diagnostica, USA). Absorbance was measured at 405 nm and a calibration curve was generated using the serially diluted control plasma to determine levels of factor VII in plasma from treated animals, relative to the saline-treated control animals.

Mouse plasma stability = format: in vitro ADME, CD-1 mouse; conditions: 1 uM lipid
Procedure: Lipid stock solution was prepared by dissolution of the lipid in isopropanol at the concentration of 5 mg/mL. A requisite volume of the lipid-isopropanol solution was then diluted to 100 μM concentration at a total volume of 1.0 mL with in 50:50 (v/v) ethanol/water. Ten microliters of this 100 μM solution was spiked into 1.0 mL of mouse plasma (BioIVT, Cat. No.: MSE00PLNHUNN, CD-1 mouse, anticoagulant: sodium heparin, not filtered) that was pre-warmed to 37° C. and was stirred at 50 rpm with a magnetic stir bar. The starting concentration of lipids in plasma was thus 1 μM. At time points 0, 15, 30, 45, 60 and 120 min, 0.1 mL of the plasma was withdrawn from the reaction mixture and the protein was precipitated by adding 0.9 mL of ice-cold 4:1 (v/v) acetonitrile/methanol with 1 μg/mL of a selected internal standard lipid added. After filtration through a 0.45 micron 96-well filtering plate, the filtrates were analyzed by LC-MS (Thermo Fisher's Vanquish UHPLC—LTQ XL linear ion trap Mass Spectrometer); Waters XBridge BEH Shield RP18 2.5 micron (2.1×100 mm) column with its matching guard column. Mobile phase A was 0.1% formic acid in water, and mobile phase B was 0.1% formic acid in 1:1 (v/v) acetonitrile/methanol. Flow rate was 0.5 ml/min. Elution gradient was: Time 0-1 min: 10% B; 1-6 min: 10%-95% B; 6-8.5 min: 95% B; 8.5-9 min: 95%-10% B; 9-10 min: 10% B. Mass spectrometry was in positive scanning mode from 600-1100 m/z. The peak of the molecular ion of the lipids was integrated in the extracted ion chromatography (XIC) using Xcalibur software (Thermo Fisher). The relative peak area compared to T=0, after normalization by the peak area of the internal standard, was used as the percentage of the lipid remaining at each time point. T1/2 values were calculated using the first-order decay model.

| SMILES | In vivo degradability (ng/tissue) at 48h 0.03 mpk ([1]; Table 1) | In vivo degradability (ng/tissue) at 48h 0.1 mpk ([1]; Table 1) | In vivo degradability (ng/tissue) at 48h 0.03 mpk ([1]; Table 2) | In vivo degradability (ng/tissue) at 48h 0.1 mpk ([1]; Table 2) | pKa ([2]; EPO formulation) | pKa ([2]; FVII formulation) | pKa: EPO ([2]; Table 2) | pKa: FVII ([2]; Table 2) | EPO exprssn (ng/mL) 0.03 mpk (hEPO; Table 1) [ng/mL] | EPO exprssn (ng/mL) 0.1 mpk (hEPO; Table 1) [ng/mL] | EPO exprssn (ng/mL) 0.03 mpk (hEPO; Table 2) [ng/mL] | EPO exprssn (ng/mL) 0.1 mpk (hEPO; Table 2) [ng/mL] | FVII KD % 0.01 mpk (factor VII; Table 1) [%] | FVII KD % 0.03 mpk (factor VII; Table 1) [%] | FVII KD % 0.01 mpk (factor VII; Table 2) [%] | FVII KD % 0.03 mpk (factor VII; Table 2) [%] | Percent remaining in mouse plasma after 2 h (Mouse plasma stability; Table 1, mouse plasma 37 C) [%] | Percent remaining in mouse plasma after 2 h (Mouse plasma stability; Table 2, mouse plasma 37 C) [%] | pKa: EPO ([2]; Table 1) |
| --- | --- | --- | --- | --- | --- | --- | --- | --- | --- | --- | --- | --- | --- | --- | --- | --- | --- | --- | --- |
| CCCCCCCCC(=O)OCC(COC(=O)CCCCCCCC)OC(=O)CCC(CCC(=O)OC(COC(=O)CCCCCCCC)COC(=O)CCCCCCCC)OC(=O)CCCN(C)C [LIPID 5, bis(1,3-bis(Nonanoyloxy)propan-2-yl) 4-((4-(dimethylamino)butanoyl)oxy)heptanedioate] | BLOQ | BLOQ | BLOQ | BLOQ | 6.37 | 6.54 | 6.37 | 6.54 | 87 | 533 | 87 | 533 | 90 | 62 | 90 | 62 | 40 | 40 |  |
| CN(C)CCCSC(=O)N(CCCC(=O)OC(COC(=O)CCC1CCCCC1)COC(=O)CCC1CCCCC1)CCCC(=O)OC(COC(=O)CCC1CCCCC1)COC(=O)CCC1CCCCC1 [LIPID 10, ((4,4′-((((3-(Dimethylamino)propyl)thio)carbonyl)azanediyl)bis(butanoyl))bis(oxy))bis(propane-2,1,3-triyl)tetrakis(3-cyclohexylpropanoate)] | BLOQ | BLOQ | BLOQ | BLOQ | 6.46 | 6.67 | 6.46 | 6.67 | 387 | 1179 | 387 | 1179 | 92 | 83 | 92 | 83 | 36 | 36 |  |
| CN(C)CCCSC(=O)N(CCCCCC(=O)OC(COC(=O)CCC1CCCCC1)COC(=O)CCC1CCCCC1)CCCCCC(=O)OC(COC(=O)CCC1CCCCC1)COC(=O)CCC1CCCCC1 [LIPID 12, ((6,6′-((((3-(Dimethylamino)propyl)thio)carbonyl)azanediyl)bis(hexanoyl))bis(oxy))bis(propane-2,1,3-triyl)tetrakis(3-cyclohexylpropanoate)] | BLOQ | BLOQ | BLOQ | BLOQ | 6.46 | 6.61 | 6.46 | 6.61 | 286 | 768 | 286 | 768 | 91 | 69 | 91 | 69 | 57 | 57 |  |
| CCCCCCCCC(=O)OCC(COC(=O)CCCCCCCC)OC(=O)CCCN(CCCC(=O)OC(COC(=O)CCCCCCCC)COC(=O)CCCCCCCC)C(=O)SCCCN(C)C [LIPID 1, ((4,4′-((((3-(Dimethylamino)propyl)thio)carbonyl)azanediyl)bis(butanoyl))bis(oxy))bis(propane-2,1,3-triyl)tetranonanoate] | BLOQ | BLOQ | BLOQ | BLOQ | 6.4 | 6.64 | 6.4 | 6.64 | 432 | 1413 | 432 | 1413 | 84 | 100 | 84 | 100 | 14 | 14 |  |
| CC(CC1CCCCC1)C(=O)OCC(COC(=O)C(C)CC1CCCCC1)OC(=O)CCCN(CCCC(=O)OC(COC(=O)C(C)CC1CCCCC1)COC(=O)C(C)CC1CCCCC1)C(=O)SCCCN(C)C (stereo not shown) [LIPID 17, ((4,4′-((((3-(Dimethylamino)propyl)thio)carbonyl)azanediyl)bis(butanoyl))bis(oxy))bis(propane-2,1,3-triyl)tetrakis(3-cyclohexyl-2-methylpropanoate)] | BLOQ | BLOQ | BLOQ | BLOQ | 6.35 | 6.35 |  | (6.35/6.35) | 1082 | 1555 |  | 1082 | 55 | 81 | 55 | 81 |  | 100 | (6.35/ |
| CCCCCCCCC(=O)OCC(COC(=O)CCCCCCCC)OC(=O)CCCC(CCCC(=O)OC(COC(=O)CCCCCCCC)COC(=O)CCCCCCCC)OC(=O)CCCN(C)C.Cl [LIPID 3, bis(1,3-bis(Nonanoyloxy)propan-2-yl) 5-((4-(dimethylamino)butanoyl)oxy)nonanedioate HCl Salt] | BLOQ | BLOQ | BLOQ | BLOQ | 6.41 | 6.49 | 6.41 | 6.49 | 191 | 471 | 191 | 471 | 51 | 87 | 51 | 87 | 15 | 15 |  |
